Data: patent publication US10076509B2, “Nested particles and the use thereof for coordinated delvery of active agents” (Board of Regents, the University of Texas System, priority 2015, dated 2018)

Experiments:
[1] = Finite Element modeling of release kinetics from nested nanoparticles
Excerpt: Due to the fact that the physico-chemical properties of the core and shell, as well as bodipy and rhodamine, are different, a computational method accounting for diffusivities and molecule partitioning was used to analyze release kinetics from nested nanoparticles. Use of the model helped determine that sequential release may be achieved and controlled not only by different diffusion properties in different phases, but also partitioning. […] The model estimated experimental release curves by using partitioning coefficients of 5.0×109 and 2.2×1011 for bodipy and rhodamine, respectively (FIG. 4a). The half-time of release of the maximum releasable material was estimated to be 15 h for the shell and 46 h for the core. The diffusivity of rhodamine inside the PLGA nanoparticle matrix was estimated to be 4×10^−10 cm2/s, which was approximately 104 times lower than that in water, while that of bodipy in the shell was reduced by only 5 times compared to that in water. […] This is illustrated in the distinct phases of dominant fluxes over time (FIG. 4b).
A Finite Element (FE) method was used to model drug diffusion. The model included partitioning conditions at the surfaces, in this case between the core and the surrounding fluid. Thus, aside from the incremental-iterative system of mass balance equations (Kojic et al., 2008; Ziemys et al., 2011; Kojic et al., 2011):
the partitioning condition was included ΔNs/ΔNf=ΔCs/Δf=P Here, M and K are element mass and diffusion matrices, ΔC represents nodal concentration increments, Q^ext and Q^tnt are external and internal nodal mass fluxes; ΔNs and ΔNf are number of molecules of solid and fluid (per FE node) passing during time step Δt, and ΔCs and ΔCf are the corresponding concentration changes at boundary nodes with partitioning property; P is partitioning coefficient; and i specifies the equilibrium iteration counter. The important material parameter in the above balance equation is the diffusion coefficient D entering the diffusion matrix K:
[formula] where NI, NJ are interpolation functions and V is element volume. […]

[2] = Release kinetics from nested nanoparticles (fluorophore release, zeta potential over time); assay type: physicochemical; conditions: PBS pH 7.4, 37° C.
Procedure: FIGS. 4A-C. Examination of nested nanoparticle release kinetics. 4A. […] 4B. […] 4C.
Fluorophore release was determined according to a previously published procedure (Woodrow et al., 2009). Absorbance of bodipy and rhodamine were detected using the Synergy H4 Hybrid Reader as described above. In a separate study, nanoparticles were centrifuged at predetermined timepoints, resuspended in water, and the surface charge determined via zeta potential analysis, as described above.

[3] = system: MCF-7 breast tumor xenografts; experiment: In vivo accumulation and release of nested nanoparticles in breast tumors
Procedure: MCF-7 cells (5×10^6) were inoculated in the mammary fat pads of 4- to 6-week-old female nu/nu mice. Mice were implanted with 17β-estradiol pellets subcutaneously. Nanoparticles were administered intravenously and at predetermined timepoints, the mouse was sacrificed and the tumor harvested. Tumor tissues were frozen and sectioned into 7 μm tissue slices using an HM 550 Cryostat (Thermo Fischer Scientific, Waltham, Mass., USA). Tissues were fixed and stained with 4% methanol-free paraformaldehyde for 20 min. Following fixation, samples were washed with PBS. Slides were mounted and tissues imaged using confocal microscopy as previously described. The presence of fluorescence over time, surface intensity plots, and area fraction of the tissue sections were examined using Nikon Elements v4.1 software. For area fraction analysis, the fluorescence emitted by bodipy and rhodamine was obtained from 4 sections from different regions of the tumor (n=3). A ratiometric percentage of area fractions of both fluorophores were extracted from the total area of the image.

[4] = Release of rapamycin and paclitaxel from nested nanoparticles; assay type: physicochemical; conditions: rapamycin in outer shell, paclitaxel in polymeric core
Excerpt: FIG. 14. Nested nanoparticles containing both rapamycin and paclitaxel release drug in a time and sequential fashion.

[5] = model parameter; from literature for rhodamine, approximated from literature for bodipy; cited from earlier work
[6] = initial timepoints leading up to 3 h, bodipy in QAβ-CD shell, rhodamine in PLGA core

Row | Molecule | Reduction of diffusivity inside material compared to that in water ([1]; rhodamine in PLGA matrix, bodipy in shell) | Time after which release plateaus [2] | Cumulative release from nested nanoparticles ([2]; by 6 h) | Cumulative release from nested nanoparticles ([2]; by 12 h) | Cumulative release from nested nanoparticles [2, 6] | Area fraction of fluorophore in tumor ([3]; mouse, in vivo, iv) | Area fraction: amount of fluorophore in tumor ([3]; mouse, in vivo, iv) | Fluorophore in tumor tissue ([3]; mouse, in vivo, iv) | Release from nested nanoparticles [4] | Time after which rhodamine flux overtook the flux of bodipy ([1]; fluxes of release from nested nanoparticles) | Diffusivity inside the PLGA nanoparticle matrix ([1]; model estimate) | Dwater (diffusivity in water) [5] | Cumulative release from nested nanoparticles ([2]; "by this same timepoint" (12 h or 48 h, not clear)) | Cumulative release from nested nanoparticles ([2]; in 96 h) | Area fraction of fluorophore in tumor ([3]; 3 h after intravenous nested nanoparticles) | Area fraction: amount of fluorophore in tumor ([3]; 96 h after intravenous nested nanoparticles)
1 | O=C(COc1ccc(/C=C/C2=[N+]3C(=Cc4ccc(-c5cccs5)n4[B-]3(F)F)C=C2)cc1)NCCCCCC(=O)ON1C(=O)CCC1=O [bodipy] | 5 times | > 48 h | 34% | 50% | 7% | ratiometrically similar amounts | decreased significantly | marked decrease | – | – | – | – | – | – | – | –
2 | CC(=O)O[C@H]1C(=O)[C@@]2(C)[C@H]([C@H](OC(=O)c3ccccc3)[C@]3(O)C[C@H](OC(=O)[C@H](O)[C@@H](NC(=O)c4ccccc4)c4ccccc4)C(C)=C1C3(C)C)[C@]1(OC(C)=O)CO[C@@H]1C[C@@H]2O [paclitaxel] | – | – | – | – | – | – | – | – | slow and prolonged release | – | – | – | – | – | – | –
3 | Rhodamine | – | – | – | – | 3% | – | – | – | – | > 24 h | 4×10^−10 cm2/s | 4.10^−6 cm^2/s | ~6% | 34% | ratiometrically similar amounts | increase
